Test results from article PMC4354462, “Design, Characterization, and First-In-Human Study of the Vascular Actions of a Novel Biased Apelin Receptor Agonist” (Hypertension, 2015).
Each block holds one compound with its values, some of them ahead of it. Positions of bridges follow the written chain, without caps; N, C: chain ends. Residues, ends and D or L forms follow the SMILES beside them.

How the values were obtained:
[1] = molecular target: T1, human apelin receptor (Homo sapiens, UniProt P35414); assay: Competition binding in CHO-K1-APJ cells; conditions: competition for [Glp65,Nle75,Tyr77][125I]apelin-13 binding; human apelin receptors in CHO-K1 cells
T1 sequence (P35414 1-380): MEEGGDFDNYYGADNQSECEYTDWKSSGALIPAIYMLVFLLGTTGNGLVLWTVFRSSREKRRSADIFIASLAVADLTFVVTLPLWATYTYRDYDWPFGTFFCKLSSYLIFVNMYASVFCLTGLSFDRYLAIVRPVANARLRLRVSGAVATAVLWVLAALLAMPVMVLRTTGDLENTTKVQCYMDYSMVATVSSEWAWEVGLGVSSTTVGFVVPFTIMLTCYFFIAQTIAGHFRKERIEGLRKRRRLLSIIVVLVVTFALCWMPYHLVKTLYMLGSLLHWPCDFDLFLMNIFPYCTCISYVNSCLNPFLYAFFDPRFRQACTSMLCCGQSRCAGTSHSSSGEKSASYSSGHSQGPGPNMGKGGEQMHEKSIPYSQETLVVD
Experimental: Initial assays were performed in cells expressing the human apelin receptor (CHO-K1-APJ cells; Cerep, Celle L’Evescault, France). […] Data were analyzed (KELL package; Biosoft, UK) to obtain the dissociation constant KD (concentration of ligand occupying 50% of receptors).

[2] = molecular target: T1, human apelin receptor; assay: Competition binding in homogenate of human left ventricle; conditions: competition for 0.1 nmol/L [Glp65,Nle75,Tyr77][125I]apelin-13; human heart (left ventricle homogenate); n=3
[3] = In vivo plasma half-life of apelin peptides; conditions: rat, iv
Excerpt: Rats (230–260 g), anaesthetized with 2% isoflurane, were given a single intravenous bolus (600 nmol) of apelin or MM07 (both n=3).

[4] = tested on: human hand vein; assay: Aellig hand vein technique study in human volunteers; type: in vivo
Excerpt: All volunteers (n=12 forearm plethysmography, n=10 hand vein studies) gave written informed consent, and studies adhered to the principles of the Declaration of Helsinki and were approved by the National Research Ethics Service Committee East of England–Cambridge Central (REC 11/EE/0305).

[5] = tested on: male Wistar rats; assay: Systemic infusions in anaesthetized rat (haemodynamics, echocardiography); type: in vivo
Experimental: Blood pressure (BP) was monitored continuously via an intra-arterial line and echocardiography was used after each bolus to determine changes in heart […], stroke volume, cardiac output (from peak velocity and velocity time interval) and respiratory rate. Rectal temperature was monitored throughout. BP was analyzed using absolute change in mean BP from the baseline taken just before the bolus and area under the curve analysis.

Kd [1]: 300 nM
Kd [2]: 172 nM
half-life [3]: 17.4 ± 0.4 min
Compound: CSCC[C@H](NC(=O)[C@@H]1CCCN1C(=O)CNC(=O)[C@H](CCCCN)NC(=O)[C@H](Cc1cnc[nH]1)NC(=O)[C@@H]1CSSC[C@H](N)C(=O)N[C@@H](CCCNC(=N)N)C(=O)N2CCC[C@H]2C(=O)N[C@@H](CCCNC(=N)N)C(=O)N[C@@H](CC(C)C)C(=O)N1)C(=O)N1CCC[C@H]1C(=O)N[C@@H](Cc1ccccc1)C(=O)O [MM07] (H-CRPRLCHKGPMPF-OH; disulfide 1-6)
adverse events in hand vein study ([4]; human, in vivo): no adverse events observed

Compound: CSCC[C@H](NC(=O)[C@@H]1CCCN1C(=O)CNC(=O)[C@H](CCCCN)NC(=O)[C@H](Cc1cnc[nH]1)NC(=O)[C@H](CO)NC(=O)[C@H](CC(C)C)NC(=O)[C@H](CCCNC(=N)N)NC(=O)[C@@H]1CCCN1C(=O)[C@H](CCCNC(=N)N)NC(=O)[C@@H]1CCC(=O)N1)C(=O)N1CCC[C@H]1C(=O)N[C@@H](Cc1ccccc1)C(=O)O [[Pyr^1]apelin-13, reference compound]
respiratory rate ([5]; incremental bolus doses 1-300 nmol): Neither peptide caused a significant change
adverse events in hand vein study ([4]; human volunteers): no adverse events observed

Compound: CC(=O)NC(C(=O)O)C(C)(C)SN=O (racemic) [SNAP, S-Nitroso-N-acetyl-D,L-penicillamine]
BP response to SNAP ([5]; given after peptide doses, both peptide-treated groups): profound fall in BP
